From ChEMBL document CHEMBL2163300, “Mitogen-activated protein kinase-activated protein kinase 2 (MAPKAP-K2) as an antiinflammatory target: discovery and in vivo activity of selective pyrazolo[1,5-a]pyrimidine inhibitors using a focused library and structure-based optimization approach” (J Med Chem, 2012)
Calls of active or inactive are those of the source. The rule behind the calls is not given here.

Legend:
[1] = molecular target: T1, MAP kinase-activated protein kinase 2 (Homo sapiens, UniProt P49137); test: Binding affinity to recombinant MAPKAP-K2 using KKKALSRQLSVAA as substrate after 4 mins by […]
[2] = molecular target: T1, MAP kinase-activated protein kinase 2; test: Inhibition of MAPKAP-K2 using KKLNRTLSVA as substrate and [33P]-gamma-ATP after 30 mins by liquid scintillation counter
[3] = molecular target: Cyclin-dependent kinase 2 (Homo sapiens, UniProt P24941)
Description: Inhibition of CDK2 after 60 mins using [33P]-gamma-ATP by liquid scintillation counter

[4] = molecular target: T1, MAP kinase-activated protein kinase 2; test: Inhibition of MAPKAP-K2
[5] = Oral bioavailability in mouse at 1 mg/kg; type: ADME, organism-based; details: in vivo
[6] = molecular target: T1, MAP kinase-activated protein kinase 2; test: Inhibition of human MAPKAP-K2 in THP1 cells assessed as inhibition of LPS-induced TNFalpha production incubated 1 hr prior to LPS challenge measured 18 hrs post LPS challenge by HTRF assay; type: cell-based, THP-1
[7] = Total clearance in mouse at 1 mg/kg, iv; type: ADME, organism-based; set-up: dose 1 mg/kg, route intravenous; details: in vivo
[8] = test system: THP-1; test: Cytotoxicity against human THP1 cells assessed as cell viability by MTS assay; type: cell-based
[9] = Half life in mouse at 1 mg/kg, iv; type: ADME, organism-based; set-up: dose 1 mg/kg, route intravenous; details: in vivo
[10] = AUC (0 to 24 hrs) in mouse at 1 mg/kg, po; type: ADME, organism-based; set-up: time < 24 hr, dose 1 mg/kg, route oral; details: plasma
[11] = test system: Mus musculus; test: Antiinflammatory activity in po dosed C57BL/6 mouse assessed as decrease in LPS-induced serum TNFalpha level administered 30 mins prior to LPS challenge measured 60 mins post LPS challenge by ELISA; type: functional, organism-based
[12] = molecular target: Serine/threonine-protein kinase Chk2 (Homo sapiens) (UniProt O96017); test: Inhibition of human CHK2 at 30 uM by Cyclex assay
Serine/threonine-protein kinase Chk2 (Homo sapiens), sequence (O96017 whole entry): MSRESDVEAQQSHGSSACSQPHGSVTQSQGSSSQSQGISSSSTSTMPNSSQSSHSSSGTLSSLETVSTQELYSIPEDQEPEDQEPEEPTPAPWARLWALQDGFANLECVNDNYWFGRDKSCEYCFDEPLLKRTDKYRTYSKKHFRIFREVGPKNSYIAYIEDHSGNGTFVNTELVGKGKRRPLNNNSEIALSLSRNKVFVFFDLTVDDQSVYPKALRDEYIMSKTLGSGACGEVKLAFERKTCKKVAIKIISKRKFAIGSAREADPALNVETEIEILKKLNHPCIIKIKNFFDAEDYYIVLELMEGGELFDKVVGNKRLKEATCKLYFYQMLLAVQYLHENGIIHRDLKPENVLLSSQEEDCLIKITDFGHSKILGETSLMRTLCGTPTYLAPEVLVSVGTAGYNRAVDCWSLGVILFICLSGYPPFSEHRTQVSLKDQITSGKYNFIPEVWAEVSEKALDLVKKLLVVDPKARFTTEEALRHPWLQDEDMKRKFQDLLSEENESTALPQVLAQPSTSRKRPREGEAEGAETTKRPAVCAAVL

T1 sequence (P49137 whole entry): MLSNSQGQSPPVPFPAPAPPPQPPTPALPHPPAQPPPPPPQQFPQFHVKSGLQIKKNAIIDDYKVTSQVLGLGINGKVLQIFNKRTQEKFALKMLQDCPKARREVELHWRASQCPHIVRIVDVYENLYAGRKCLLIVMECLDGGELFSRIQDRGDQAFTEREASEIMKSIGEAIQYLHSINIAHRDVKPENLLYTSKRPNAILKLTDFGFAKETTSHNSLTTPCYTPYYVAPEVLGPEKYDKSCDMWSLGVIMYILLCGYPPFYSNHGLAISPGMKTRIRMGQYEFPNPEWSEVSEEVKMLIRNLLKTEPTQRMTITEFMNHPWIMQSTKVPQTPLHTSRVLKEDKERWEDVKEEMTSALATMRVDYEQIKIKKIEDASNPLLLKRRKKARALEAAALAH

Structure (SMILES)	IC50 [2] [µM]	IC50 [3] [µM]	further results
Cc1ccc(-c2ccc3c(ccc4sc5c(c43)NC[C@@H](C)NC5=O)n2)cn1	–	–	IC50 [1]: 0.005 µM
Cc1c(N[C@H]2CC[C@H](N)CC2)nc2ccnn2c1Nc1ccc(OCc2ccccc2)cc1	0.7	–	–
CCN(CC)[C@H]1CC[C@H](Nc2cc(Nc3ccc(F)c(Cl)c3)n3nccc3n2)CC1	> 100	–	–
N[C@H]1CC[C@H](Nc2nc3ccnn3c(Nc3ccc(F)c(Cl)c3)c2-c2ccccc2)CC1	1.6	6	–
N[C@H]1CC[C@H](Nc2cc(NCC3CCCCC3)n3nccc3n2)CC1	11	–	–
NC1CCCC(Nc2cc(Nc3ccc(F)c(Cl)c3)n3nccc3n2)C1 (centres undefined)	> 100	–	–
Cc1c(N[C@H]2CC[C@H](N)CC2)nc2ccnn2c1Nc1ccccc1Cl	1.7	6.4	–
N#Cc1c(N)nc2c(c1N)Cc1cc(O)c(O)cc1O2	–	–	IC50 [4]: 0.13 µM
CN(c1ccc(F)c(Cl)c1)c1cc(N[C@H]2CC[C@H](N)CC2)nc2ccnn12	> 300	–	–
CCOc1ccc(Nc2c(C)c(N[C@H]3CC[C@H](O)CC3)nc3ccnn23)cc1	89	–	–
CCOc1ccc(Nc2c(C)c(O[C@H]3CC[C@H](N)CC3)nc3ccnn23)cc1	0.57	–	–
COCCOc1ccc(Nc2c(C)c(N[C@H]3CCCNC3)nc3ccnn23)cc1	0.13	22	bioavailability [5]: 80%; IC50 [6]: 7.6 µM; clearance [7]: 58.3 mL/min/kg; IC50 [8]: > 100 µM; half-life [9]: 1 h; AUC(0-t) at 24 h [10]: 0.316 µM·h
CCc1c(NC2CCCNC2)nc2ccnn2c1Nc1ccc(F)c(Cl)c1 (racemic)	0.7	24	–
CCOc1ccc(Nc2c(C)c(NCCN)nc3ccnn23)cc1	2.5	–	–
Nc1ccc(Nc2cc(Nc3ccc(F)c(Cl)c3)n3nccc3n2)cc1	> 100	–	–
CCOC(=O)c1cccc(Nc2c(C)c(N[C@H]3CC[C@H](N)CC3)nc3ccnn23)c1	1.9	–	–
CCOc1ccc(Nc2c(C)c(NCCCCN)nc3ccnn23)cc1	4.1	–	–
Cc1c(N[C@H]2CC[C@H](N)CC2)nc2ccnn2c1Nc1ccc(F)c(Cl)c1	0.4	11	–
CC(C)CCNc1cc(N[C@H]2CC[C@H](N)CC2)nc2ccnn12	12	–	–
N[C@H]1CC[C@H](Nc2cc(Nc3ccc(F)c(Cl)c3)n3ncc(Br)c3n2)CC1	9.2	0.0034	–
CCCc1c(N[C@H]2CC[C@H](N)CC2)nc2ccnn2c1Nc1ccc(F)c(Cl)c1	0.6	2.1	–
CC(C)(C)c1cc2nc(N[C@H]3CC[C@H](N)CC3)cc(Nc3ccc(F)c(Cl)c3)n2n1	> 300	–	–
N[C@H]1CC[C@H](Nc2cc(Nc3ccc(F)c(Cl)c3)n3ncc(Cl)c3n2)CC1	8.1	0.003	–
CC(=O)c1ccc(-c2ccc(Nc3c(C)c(N[C@H]4CCCNC4)nc4ccnn34)cc2)s1	0.057	21	–
N#Cc1cnn2c(Nc3ccc(F)c(Cl)c3)cc(N[C@H]3CC[C@H](N)CC3)nc12	3.1	0.004	–

Structure (SMILES)	IC50 [2] [µM]	IC50 [3] [µM]	further results
CCN[C@H]1CC[C@H](Nc2cc(Nc3ccc(F)c(Cl)c3)n3nccc3n2)CC1	2	–	–
Fc1ccc(Nc2cc(NCC3CCNCC3)nc3ccnn23)cc1Cl	> 100	–	–
Cc1ccc(-n2nc(C(C)(C)C)cc2NC(=O)Nc2ccc(OCCN3CCOCC3)c3ccccc23)cc1	–	–	Activity [11]: Dose-dependent effect
Cc1c(N[C@H]2CC[C@H](N)CC2)nc2ccnn2c1Nc1cccc(OCc2ccccc2)c1	3	–	–
Cc1c(N[C@H]2CCCNC2)nc2ccnn2c1Nc1ccc(OCCN2CCOCC2)cc1	0.16	62	–
Cc1c(N[C@H]2CCCNC2)nc2ccnn2c1Nc1ccc2c(cnn2C)c1	0.076	27	–
Fc1ccc(Nc2cc(NC3CCCNC3)nc3ccnn23)cc1Cl (racemic)	0.4	0.7	–
CCOc1cccc(Nc2c(C)c(N[C@H]3CC[C@H](N)CC3)nc3ccnn23)c1	1.4	–	–
Cc1c(NC2CCCNC2)nc2ccnn2c1Nc1ccc(F)c(Cl)c1 (racemic)	0.51	33	–
CCOC(=O)c1ccc(Nc2c(C)c(N[C@H]3CC[C@H](N)CC3)nc3ccnn23)cc1	0.7	–	–
Cc1cc2nc(N[C@H]3CC[C@H](N)CC3)cc(Nc3ccc(F)c(Cl)c3)n2n1	> 300	–	–
CCOc1ccc(Nc2c(C)c(NCCCN)nc3ccnn23)cc1	8.7	–	–
CCOc1ccc(Nc2c(C)c(N[C@H]3CC[C@H](N)CC3)nc3ccnn23)cc1	0.36	–	inhibition [12]: inactive
CC(=O)N[C@H]1CC[C@H](Nc2cc(Nc3ccc(F)c(Cl)c3)n3nccc3n2)CC1	> 100	–	–
N[C@H]1CC[C@H](Nc2cc(Nc3ccccc3Cl)n3nccc3n2)CC1	0.2	0.39	inhibition [12]: inactive
Cc1c(N[C@H]2CCCNC2)nc2ccnn2c1Nc1ccc(C(=O)NC2CCCC2)cc1	0.14	49	–
Cc1nc2ccc(Nc3c(C)c(N[C@H]4CCCNC4)nc4ccnn34)cc2s1	0.054	25	bioavailability [5]: 79%; IC50 [6]: 8.4 µM; clearance [7]: 58.3 mL/min/kg; IC50 [8]: 54 µM; half-life [9]: 2.6 h; AUC(0-t) at 24 h [10]: 0.579 µM·h
CCc1c(N[C@H]2CC[C@H](N)CC2)nc2ccnn2c1Nc1ccccc1Cl	1.5	> 300	–
CCc1c(N[C@H]2CC[C@H](N)CC2)nc2ccnn2c1Nc1ccc(F)c(Cl)c1	0.4	3.6	inhibition [12]: inactive
CCOc1ccc(Nc2c(C)c(N[C@H]3CCCNC3=O)nc3ccnn23)cc1	> 100	–	–
Fc1ccc(Nc2cc(NC3CCCCC3)nc3ccnn23)cc1Cl	> 100	–	–
N[C@H]1CC[C@H](Nc2cc(NCc3ccccc3)n3nccc3n2)CC1	7	–	–
CCOc1ccc(Nc2c(C)c(N(C)C3CCCNC3)nc3ccnn23)cc1 (racemic)	26	–	–
Fc1ccc(Nc2cc(NC3CCNCC3)nc3ccnn23)cc1Cl	25	–	–
CCOc1ccc(Nc2c(C)c(NCCO)nc3ccnn23)cc1	83	–	–
